Measurements taken from patent publication US20090093011A1, “Biosensors for ligand-directed functional selectivity” (priority 2007, published 2009).
Entries after “also recorded” stand apart in the source; their conditions may differ. Like-named read-outs stand apart in the source and are kept apart here.

How the values were obtained:
dynamin = conditions: 2 nM epinephrine after pretreatment with 25 μM DIPC
Text: Although not bound by theory, a receptor internalization process is believed to result in a loss in local mass density or distribution within the sensing volume of the biosensor, leading to a negative contribution to the overall response. Since dynamin is known to play an important role in the ligand-induced β2AR internalization, we examined the effect of inhibiting dynamin activity on the ligand responses.

β2AR [1] = target: T1, β2AR (Homo sapiens, UniProt P07550); conditions: βARK- and PKA-mediated phosphorylation; cited from earlier work
β2AR [2] = target: T1, β2AR; assay: Ligand-induced DMR signal, RWG biosensor, quiescent A431 cells; type: cell-based; design: A431 cells endogenously express large numbers of the β2AR; endogenous in cells; host or cells: A431 (human epidermoid carcinoma), quiescent; conditions: for t1/2 of single-phase exponential decay of EC50 with assay time: EC50 as a function of assay time (FIG. 3c); for t1/2: P-DMR event, single phase exponential association fit; for N-DMR (pm): amplitude of N-DMR event; for P-DMR (pm): amplitude of P-DMR event; for type of DMR signal induced by the ligand alone: saturating concentration, quiescent A431 cells; for transition time (τ in seconds): time for the P-DMR event to occur; for t1/2 of the P-DMR event: one-phase exponential association; for EC50: DMR response at assay time of 50 min
Procedure: Cell culture—Human epidermoid carcinoma A431 cells (American Type Cell Culture) were grown in Dulbecco's modified Eagle's medium (DMEM) supplemented with 10% fetal bovine serum (FBS), 4.5 g/liter glucose, 2 mM glutamine, and antibiotics. About 1.8×10^4 cells at passage 3 to 8 suspended in 50 μL the DMEM medium containing 10% FBS were placed in each well of a 384-well microplate, and were cultured at 37° C. under air/5% CO2 for about 1 day, followed by about 20 hr starvation through continuously culturing in the serum-free DMEM.
Optical biosensor system and cell assays—A Corning® Epic® wavelength interrogation system with an on-board liquid handling system was used. The system is standalone and consists of a temperature-control unit, an optical detection unit, and an on-board liquid handling unit with robotics. The temperature-control unit minimizes temperature fluctuations, if any. Inside this unit, there are two side-by-side stacks for holding both the sensor microplates and compound source plates. Once stable temperature is reached (typically within 1 hr), a sensor microplate is transferred by the robotics into the plate holder right above the detection system, while a source plate is moved to an appropriate compartment so that it is readily addressable by the on-board liquid handling unit.
The detection unit has integrated fiber optics to measure the wavelength shift of the resonant lights due to ligand-induced dynamic mass redistribution in living cells. A broadband white light source centered on 830 nm, generated through a fiber optic and a collimating lens at nominally normal incidence through the bottom of the microplate, is used to illuminate a small region of the grating surface. A detection fiber for recording the reflected light is bundled with the illumination fiber. A series of illumination/detection heads are arranged in a linear fashion, so that reflection spectra are collected from the 16-wells within the same column of a 384 well microplate at once.
(§1) For kinetic assays, the cells were washed with HBSS (Hanks Balanced Salt Solution with 20 mM HEPES) buffer. After 1 hour incubation within the detection system, the sensor plate was scanned and a baseline response was recorded. Then, compound solutions were transferred into the sensor plate using the on-board liquid handling system, and the cell responses were then recorded for another period of time. The lid of the sensor microplates was on throughout the assay, except of a short period of time (about 1 min.) when the compounds were introduced. The plate lid was handled automatically by the robotics. All studies were carried out at controlled temperature (28° C.).
Statistical analysis—Unless specifically mentioned, three replicates were carried out for each measurement or each compound. The standard deviation was derived from these measurements (n=3). […] All dose-dependent responses were analyzed using non-linear regression method with Prism software (available from Graph Pad).
Ligand-specific DMR signals—β2AR in A431 cells were selected as a model system for assaying ligand-directed functional selectivity, because of well-established signaling pathways of the β2AR in A431 as well as the availability of a rich source of structurally similar ligands having wide spectrum of efficacies. A431 cells endogenously express large numbers of the β2AR (about 34,000 copies per cells). To examine the functional selectivity of β2AR ligands, we used RWG biosensor to follow change in local mass density or distribution as a function of time upon stimulation with a saturating concentration of a ligand. The RWG biosensor detects an integrated response, termed as dynamic mass redistribution (DMR) signal, mediated through ligand-induced activation of the β2AR. The DMR signal approximates a global representation of the receptor activation and signaling, particularly for signaling events associated with dynamic relocation of cellular matters at or near the sensor surface.

β2AR [3] = target: T1, β2AR; assay: Catechol co-stimulation of β2AR ligand-induced DMR signals in A431 cells; type: cell-based; design: A431 cells endogenously express large numbers of the β2AR; endogenous in cells; host or cells: A431 (human epidermoid carcinoma), quiescent; conditions: catechol of 500 μM; pindolol of 10 nM, epinephrine of 100 nM
Text: The ability of catechol to modulate the DMR signals induced by other ligands was examined. […] In embodiments the signaling of 600 or 610 can be completely separated, or can partially overlap.

β2AR [4] = target: T1, β2AR; conditions: dopamine of <100 μM; antagonist 1 μM
Procedure: as §1

β2AR [5] = target: T1, β2AR; conditions: binding affinity reference value from literature sources; cited from earlier work

T1 sequence (P07550 whole entry): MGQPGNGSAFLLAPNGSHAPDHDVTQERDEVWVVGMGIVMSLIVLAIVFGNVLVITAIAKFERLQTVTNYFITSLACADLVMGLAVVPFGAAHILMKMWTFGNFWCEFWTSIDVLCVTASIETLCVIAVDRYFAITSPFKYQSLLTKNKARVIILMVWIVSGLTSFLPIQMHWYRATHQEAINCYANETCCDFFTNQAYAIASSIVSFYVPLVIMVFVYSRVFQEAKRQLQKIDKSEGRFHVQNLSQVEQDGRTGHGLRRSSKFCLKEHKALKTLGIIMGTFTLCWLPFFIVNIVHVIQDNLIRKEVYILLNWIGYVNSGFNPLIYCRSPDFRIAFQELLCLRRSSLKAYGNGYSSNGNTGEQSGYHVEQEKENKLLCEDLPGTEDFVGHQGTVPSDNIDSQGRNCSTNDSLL

Row | t1/2 (β2AR [2]) [min] | N-DMR (pm) (β2AR [2]) | P-DMR (pm) (β2AR [2]) | transition time (τ in seconds) (β2AR [2]) [s] | t1/2 of the P-DMR event (β2AR [2]) | SMILES | maximal amplitude of the P-DMR event, normalized to the epinephrine response (β2AR [2]; n=16) [%] | type of DMR signal induced by the ligand alone (β2AR [2]) | also measured
1 | 16.2 ± 2.5 | 0 ± 5 | 75 ± 18 | 260 ± 26 | about 974 s | O=C(NCCNCC(O)COc1ccc(O)cc1)N1CCOCC1 (centres unmarked) [xamoterol] | – | initial steady phase (termed as net-zero DMR) with a short duration, and a succeeding P-DMR | –
2 | – | – | – | – | – | O=C(CCCN1CCC2(CC1)C(=O)NCN2c1ccccc1)c1ccc(F)cc1 [spiperone] | – | – | inhibition of the dopamine response (β2AR [4]): neither 1 μM SCH 23390 nor 1 μM spiperone
3 | – | – | – | – | – | NCCc1ccc(O)cc1 [tyramine] | – | complicated DMR signal | –
4 | 8 ± 0.383 | 31 ± 4 | 214 ± 32 | 252 ± 15 | about 480 s | NCCc1ccc(O)c(O)c1 [dopamine] | – | biphasic response | –
5 | 9.32 ± 0.25 | 29 ± 5 | 209 ± 16 | 180 ± 17 | – | NC[C@H](O)c1ccc(O)c(O)c1 [norepinephrine] | 91 | biphasic response | t1/2 of single-phase exponential decay of EC50 with assay time (β2AR [2]): about 248 sec
6 | – | – | – | – | – | CNCC(O)c1ccccc1 (centres unmarked) [halostachine] | – | – | −logKi (ref.) (β2AR [5]): 5.08(3); maximal amplitude of the P-DMR event, normalized to the epinephrine response (β2AR [2]): 90%; EC50 (β2AR [2]): 23.4 µM
7 | – | – | – | – | – | NCCc1ccccc1 [phenylethylamine] | – | complicated DMR signal | –
8 | 4.82 ± 0.7 | 0 ± 3 | 152 ± 13 | 130 ± 15 | about 289 s | Oc1ccccc1O [catechol] | 66 | initial steady phase (termed as net-zero DMR) with a short duration, and a succeeding P-DMR | −logKi (ref.) (β2AR [5]): 3.80(3); transition time (τ) (β2AR [2]): about 140 sec; EC50 (β2AR [2]): 501 µM

Row | SMILES | t1/2 (β2AR [2]) [min] | N-DMR (pm) (β2AR [2]) | P-DMR (pm) (β2AR [2]) | transition time (τ in seconds) (β2AR [2]) [s] | t1/2 of the P-DMR event (β2AR [2]) | maximal amplitude of the P-DMR event, normalized to the epinephrine response (β2AR [2]; n=16) [%] | type of DMR signal induced by the ligand alone (β2AR [2]) | also measured
9 | CNC[C@H](O)c1ccc(O)c(O)c1 [epinephrine] | 8.68 ± 0.417 | 37 ± 7 | 232 ± 12 | 132 ± 20 | – | 100 | biphasic response | t1/2 for the P-DMR event (dynamin): about 200 seconds; transition time (τ) (dynamin): about 120 sec; kobs of receptor phosphorylation (β2AR [1]): about 20 sec; transition time (τ) (β2AR [2]): about 140 sec; t1/2 of single-phase exponential decay of EC50 with assay time (β2AR [2]): about 203 sec; duration of initial N-DMR (β2AR [2]; epinephrine response, FIG. 1): about 130 sec; duration of subsequent P-DMR (β2AR [2]; epinephrine response, FIG. 1): > 10 min; DMR signal on co-stimulation with catechol compared with individual signals (β2AR [3]): almost identical to that induced by 100 nM epinephrine alone
10 | CC(C)NCC(O)COc1cccc2[nH]ccc12 (centres unmarked) [pindolol] | 8.6 ± 0.783 | 0 ± 4 | 142 ± 19 | 250 ± 15 | – | 61 | initial steady phase (termed as net-zero DMR) with a short duration, and a succeeding P-DMR | DMR signal on co-stimulation with catechol compared with individual signals (β2AR [3]): closely resembled, but was not identical to, the sum of the two DMR signals; also recorded: close to the sum of the two DMR signals obtained individually
